PubChem BioAssay AID256 (DTP/NCI, 2004)
Several values for one entry are separate records, joined by “and”; a condition that tells them apart may be missing. Equal values may be shown once. Inconclusive results and toxic doses are left out. Residues, ends and D or L forms follow the SMILES beside them.

Test system: CD2F1 mice, L1210 leukemia ip, survival T/C
Test: NCI In Vivo Anticancer Drug Screen. Data for tumor model L1210 Leukemia (intraperitoneal) in CD2F1 (CDF1) mice
Conditions: endpoint: mean survival time, higher = longer survival
Summary of the method: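 Activity against a transplanted murine tumor was judged by comparing the compound group with a vehicle group. The outcome in the treated animals was divided by that in the controls.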

[1] = dose: 100.0 mg/kg/injection, schedule: Q04DX003 (ip), vehicle: saline with Tween-80
[2] = dose: 200.0 mg/kg/injection, schedule: Q04DX003 (ip), vehicle: saline with Tween-80
[3] = dose: 400.0 mg/kg/injection, schedule: Q04DX003 (ip), vehicle: saline with Tween-80
[4] = dose: 100.0 mg/kg/injection, schedule: Q01DX009 (ip), vehicle: saline with Tween-80
[5] = dose: 200.0 mg/kg/injection, schedule: Q01DX009 (ip), vehicle: saline with Tween-80
[6] = dose: 400.0 mg/kg/injection, schedule: Q01DX009 (ip), vehicle: saline with Tween-80
[7] = dose: 25.0 mg/kg/injection, schedule: Q04DX003 (ip), vehicle: saline with Tween-80
[8] = dose: 50.0 mg/kg/injection, schedule: Q04DX003 (ip), vehicle: saline with Tween-80
[9] = dose: 100.0 mg/kg/injection, schedule: Q04DX002 (ip), vehicle: saline with Tween-80
[10] = dose: 200.0 mg/kg/injection, schedule: Q04DX002 (ip), vehicle: saline with Tween-80
[11] = dose: 400.0 mg/kg/injection, schedule: Q04DX002 (ip), vehicle: saline with Tween-80
[12] = dose: 12.5 mg/kg/injection, schedule: Q01DX005 (ip), vehicle: distilled water + Tween-80
[13] = dose: 25.0 mg/kg/injection, schedule: Q01DX005 (ip), vehicle: distilled water + Tween-80
[14] = dose: 50.0 mg/kg/injection, schedule: Q01DX005 (ip), vehicle: distilled water + Tween-80
[15] = dose: 100.0 mg/kg/injection, schedule: Q01DX005 (ip), vehicle: distilled water + Tween-80
[16] = dose: 200.0 mg/kg/injection, schedule: Q01DX005 (ip), vehicle: distilled water + Tween-80
[17] = dose: 100.0 mg/kg/injection, schedule: Q01DX001 (ip), vehicle: saline with Tween-80
[18] = dose: 200.0 mg/kg/injection, schedule: Q01DX001 (ip), vehicle: saline with Tween-80
[19] = dose: 400.0 mg/kg/injection, schedule: Q01DX001 (ip), vehicle: saline with Tween-80
[20] = dose: 12.5 mg/kg/injection, schedule: Q01DX009 (ip), vehicle: water
[21] = dose: 25.0 mg/kg/injection, schedule: Q01DX009 (ip), vehicle: water
[22] = dose: 50.0 mg/kg/injection, schedule: Q01DX009 (ip), vehicle: water
[23] = dose: 100.0 mg/kg/injection, schedule: Q01DX009 (ip), vehicle: water

## Cc1cc2c(=O)c(C)c[nH]c2cc1Cl
dose: 50.0 mg/kg/injection, schedule: Q01DX009 (ip), vehicle: Klucel (hydroxypropylcellulose) (HPC)
  T/C: 89 % of control
dose: 100.0 mg/kg/injection, schedule: Q01DX009 (ip), vehicle: Klucel (hydroxypropylcellulose) (HPC)
  T/C: 86 % of control

## Cc1ccccc1NC(=O)C1CCC(C)(C(=O)O)C1(C)C (stereo unspecified)
[1]
  T/C: 98 % of control
[2]
  T/C: 93 % of control
[3]
  T/C: 96 % of control

## COc1cccc(CCNC(=O)CCN2C(=O)CCC2=O)c1
[4]
  T/C: 98 % of control
dose: 100.0 mg/kg/injection, schedule: Q04DX003 (ip), vehicle: saline sonified
  T/C: 101 % of control
[5]
  T/C: 93 % of control
dose: 200.0 mg/kg/injection, schedule: Q04DX003 (ip), vehicle: saline sonified
  T/C: 98 % of control
[6]
  T/C: 100 % of control
dose: 400.0 mg/kg/injection, schedule: Q04DX003 (ip), vehicle: saline sonified
  T/C: 104 % of control

## N#CC(C#N)=NNc1ccc(S(=O)(=O)c2ccc(NN=C(C#N)C#N)cc2)cc1
[4]
  T/C: 103 % of control
[5]
  T/C: 100 % of control
[6]
  T/C: 103 % of control

## Cc1cc(C)n(C(=S)[S-])n1.Cc1cc(C)n(C(=S)[S-])n1.[Pt+2]
[7]
  T/C: 90 % of control
[8]
  T/C: 90 % of control
[1]
  T/C: 105 % of control

## Cc1ccc(S(=O)(=O)OCCCCCOS(=O)(=O)c2ccc(C)cc2)cc1 (tested in a mixture with another compound)
[9]
  T/C: 102 % of control
[10]
  T/C: 94 % of control
[11]
  T/C: 94 % of control

## [Cl][Pt+2][Cl].[NH-]N1CCN([NH-])CC1
dose: 12.5 mg/kg/injection, schedule: Q04DX003 (ip), vehicle: saline with Tween-80
  T/C: 105 % of control
[7]
  T/C: 90 % of control
[8]
  T/C: 98 % of control
[1]
  T/C: 94 % of control
[2]
  T/C: 102 % of control

## NP(N)(=O)c1ccccc1
dose: 100.0 mg/kg/injection, schedule: Q04DX003 (ip), vehicle: saline
  T/C: 94 % of control
dose: 200.0 mg/kg/injection, schedule: Q04DX003 (ip), vehicle: saline
  T/C: 98 % of control
dose: 400.0 mg/kg/injection, schedule: Q04DX003 (ip), vehicle: saline
  T/C: 94 % of control

## OCC1OC(n2cnc3c(/C=C(/O)c4ccccc4)ncnc32)C(O)C1O (stereo unspecified)
[12]
  T/C: 102 % of control
[13]
  T/C: 91 % of control
[14]
  T/C: 87 % of control
[15]
  T/C: 90 % of control
[16]
  T/C: 98 % of control

## CCOC(=O)CCC(NC(=O)C(CSC(c1ccccc1)(c1ccccc1)c1ccccc1)NC(c1ccccc1)(c1ccccc1)c1ccccc1)C(=O)OCC (stereo unspecified)
dose: 25.0 mg/kg/injection, schedule: Q01DX009 (ip), vehicle: saline
  T/C: 93 % of control
dose: 50.0 mg/kg/injection, schedule: Q01DX009 (ip), vehicle: saline
  T/C: 100 % of control
dose: 100.0 mg/kg/injection, schedule: Q01DX009 (ip), vehicle: saline
  T/C: 96 % of control
dose: 200.0 mg/kg/injection, schedule: Q01DX009 (ip), vehicle: saline
  T/C: 96 % of control
dose: 400.0 mg/kg/injection, schedule: Q01DX009 (ip), vehicle: saline
  T/C: 96 % of control

## Cc1c2ccccc2c(CN(C)CC(=O)NCC(=O)NCC(=O)O)c2ccccc12
[17]
  T/C: 103 % of control
[18]
  T/C: 92 % of control
[19]
  T/C: 92 % of control

## CC(C)C(NC(=O)C(CCCN=C(N)N)NC(=O)C(N)CCCCN)C(N)=O (stereo not drawn) (H-Lys-Arg-Val-NH2; configuration not given here)
[20]
  T/C: 101 % of control
[21]
  T/C: 101 % of control
[22]
  T/C: 94 % of control
[23]
  T/C: 97 % of control
dose: 200.0 mg/kg/injection, schedule: Q01DX009 (ip), vehicle: water
  T/C: 95 % of control

## CCN(CC)c1nc2c(c(=O)n(C)c(=O)n2C)n1CCCNCC(O)c1ccc(O)c(O)c1 (stereo unspecified)
[12]
  T/C: 96 % of control
[13]
  T/C: 103 % of control
[14]
  T/C: 97 % of control
[15]
  T/C: 105 % of control
[16]
  T/C: 100 % of control

## Nc1nc(-c2cccc([N+](=O)[O-])c2)c(N=Nc2ccccc2Cl)s1
[17]
  T/C: 89 % of control
[19]
  T/C: 96 % of control

## CC(=O)Nc1ccc2oc(=O)ccc2c1
[1]
  T/C: 101 % of control
[2]
  T/C: 101 % of control
[3]
  T/C: 101 % of control

## CCOc1ccccc1/C=C1\N=C(c2ccc([N+](=O)[O-])cc2)OC1=O
[9]
  T/C: 95 % of control
[10]
  T/C: 91 % of control
[11]
  T/C: 100 % of control

## c1ccc(CCc2nc(-c3ccccc3)cc(-c3ccccc3)n2)cc1
[17]
  T/C: 89 % of control
[18]
  T/C: 92 % of control
[19]
  T/C: 87 % of control

## O=[N+]([O-])c1ccc(C(O)C(Br)[N+](=O)[O-])cc1 (stereo unspecified)
[4]
  T/C: 93 % of control
[1]
  T/C: 101 % of control
[5]
  T/C: 94 % of control
[2]
  T/C: 98 % of control
[6]
  T/C: 87 % of control
[3]
  T/C: 95 % of control

## CC(C)CNC1=CC(=O)c2ccccc2C1=O
[1]
  T/C: 95 % of control
[2]
  T/C: 98 % of control
[3]
  T/C: 101 % of control

## O=C1NC(CN2CCC(O)CC2)C(=O)NC1CN1CCC(O)CC1 (stereo unspecified)
dose: 3.13 mg/kg/injection, schedule: Q01DX009 (ip), vehicle: water
  T/C: 97 % of control
dose: 6.25 mg/kg/injection, schedule: Q01DX009 (ip), vehicle: water
  T/C: 95 % of control
[20]
  T/C: 97 % of control
[21]
  T/C: 100 % of control
[22]
  T/C: 100 % of control
[23]
  T/C: 108 % of control

## S=C(Nc1ccc(Cl)cc1)Nc1ccc(Cl)cc1 (tested in a mixture with another compound)
[4]
  T/C: 92 % of control
[1]
  T/C: 91 % of control
[5]
  T/C: 97 % of control
[2]
  T/C: 88 % of control
[6]
  T/C: 90 % of control
[3]
  T/C: 93 % of control

## O=C(O)CCN1C(=O)c2ccccc2C1=O
[1]
  T/C: 98 % of control
[2]
  T/C: 97 % of control
[3]
  T/C: 97 % of control

## O=C(NCCCl)Nc1cccc(Cl)c1
[17]
  T/C: 87 % of control
[18]
  T/C: 102 % of control
[19]
  T/C: 90 % of control

## COC(=O)c1cccn1C(=O)c1ccccc1N
[9]
  T/C: 96 % of control
[10]
  T/C: 93 % of control
[11]
  T/C: 100 % of control

## O=C(O)C1CCCCC1c1c2ccc(=O)cc-2oc2cc(O)ccc12 (stereo unspecified)
[1]
  T/C: 104 % of control
[2]
  T/C: 92 % of control
[3]
  T/C: 92 % of control

## Cc1ccc(S(=O)(=O)c2ccc(F)cc2)cc1
[4]
  T/C: 100 % of control
[5]
  T/C: 102 % of control
[6]
  T/C: 96 % of control

## O=S(=O)(O)c1ccccc1.O=S(=O)(O)c1ccccc1.[NH-]C1CCCCC1[NH-].[Pt+2]
dose: 1.0 mg/kg/injection, schedule: Q01DX009 (ip), vehicle: dextrose
  T/C: 220 % of control
dose: 1.0 mg/kg/injection, schedule: Q04DX003 (ip), vehicle: other
  T/C: 170 % of control
dose: 2.0 mg/kg/injection, schedule: Q04DX003 (ip), vehicle: other
  T/C: 218 % of control
dose: 4.0 mg/kg/injection, schedule: Q01DX001 (ip), vehicle: dextrose
  T/C: 155 % of control
dose: 4.0 mg/kg/injection, schedule: Q04DX003 (ip), vehicle: dextrose
  T/C: 221 % of control
dose: 6.0 mg/kg/injection, schedule: Q04DX003 (ip), vehicle: dextrose
  T/C: 200 % of control
dose: 6.0 mg/kg/injection, schedule: Q04DX003 (ip), vehicle: other
  T/C: 119 % of control
dose: 8.0 mg/kg/injection, schedule: Q01DX001 (ip), vehicle: dextrose
  T/C: 155 % of control
dose: 8.0 mg/kg/injection, schedule: Q04DX003 (ip), vehicle: dextrose
  T/C: 191 % of control
dose: 12.0 mg/kg/injection, schedule: Q01DX001 (ip), vehicle: dextrose
  T/C: 196 % of control
dose: 16.0 mg/kg/injection, schedule: Q01DX001 (ip), vehicle: dextrose
  T/C: 152 % of control and 303 % of control
dose: 24.0 mg/kg/injection, schedule: Q01DX001 (ip), vehicle: dextrose
  T/C: 262 % of control

## O=C(/C=C/c1ccccc1)Nc1ccc(Cl)c(Cl)c1
[9]
  T/C: 100 % of control
[10]
  T/C: 91 % of control
[11]
  T/C: 95 % of control

## CCOC(=O)C1=C2CC(C)(C)CCC2(C)CCC1=O (stereo unspecified)
[9]
  T/C: 100 % of control
[10]
  T/C: 100 % of control
[11]
  T/C: 88 % of control
